The source of these data is patent publication US6855730B2, “3-methylidenyl-2-indolinone modulators of protein kinase” (Sugen, Inc., priority 1998, dated 2005).

Common to all, as to assay type: cell-based
Experiment [1] has as its target T1, 3T3 cell line genetically engineered to express human EGF-R (Homo sapiens, UniProt P00533).
T1 construct: expressed in transfected cells; host or cells: 3T3
Description: EGF-induced BrdU incorporation assay. The settings on record: read-out: BrdU EGF driven IC50. How it is done:
The cellular/catalytic assays described herein are performed in an ELISA format. The general procedure is as follows: a compound is introduced to cells expressing the test kinase, either naturally or recombinantly, for a selected period of time after which, if the test kinase is a receptor, a ligand known to activate the receptor is added. The cells are lysed and the lysate is transferred to the wells of an ELISA plate previously coated with a specific antibody recognizing the substrate of the enzymatic phosphorylation reaction. Non-substrate components of the cell lysate are washed away and the amount of phosphorylation on the substrate is detected with an antibody specifically recognizing phosphotyrosine compared with control cells that were not contacted with a test compound. The cellular/biologic assays described herein measure the amount of DNA made in response to activation of a test kinase, which is a general measure of a proliferative response. The general procedure for this assay is as follows: a compound is introduced to cells expressing the test kinase, either naturally or recombinantly, for a selected period of time after which, if the test kinase is a receptor, a ligand known to activate the receptor is added. After incubation at least overnight, a DNA labeling reagent such as Bromodeoxyuridine (BrdU) or 3H-thymidine is added. The amount of labeled DNA is detected with either an anti-BrdU antibody or by measuring radioactivity and is compared to control cells not contacted with a test compound. […]
Protocol • (1) Cells are seeded at 8000 cells/well in 10% CS, 2mM Gin in DMEM, in a 96 well plate. Cells are incubated overnight at 37° C. in 5% CO2. • (2) After 24 hours, the cells are washed with PBS, and then are serum starved in serum free medium (0% CS DMEM with 0.1% BSA) for 24 hours. • (3) On day 3, ligand (EGF, 2 nM, prepared in DMEM with 0.1% BSA) and test compounds are added to the cells simultaneously. The negative control wells receive serum free DMEM with 0.1% BSA only, the positive control cells receive the ligand (EGF) but no test compound. Test compounds are prepared in serum free DMEM with ligand in a 96 well plate, and serially diluted for 7 test concentrations. • (4) After 20 hours of ligand activation, diluted BrdU labeling reagent (1:100 in DMEM, 0.1% BSA) is added and the cells are incubated with BrdU (final concentration=10 μM) for 1.5 hours. • (5) After incubation with labeling reagent, the medium is removed by decanting and tapping the inverted plate on a paper towel. FixDenat solution is added (50 μl/well) and the plates are incubated at room temperature for 45 minutes on a plate shaker. • (6) The FixDenat solution is thoroughly removed by decanting and tapping the inverted plate on a paper towel. Milk is added (5% dehydrated milk in PBS, 200 μl/well) as a blocking solution and the plate is incubated for 30 minutes at room temperature on a plate shaker. • (7) The blocking solution is removed by decanting and the wells are washed once with PBS. Anti-BrdU-POD solution (1:100 dilution in PBS, 1% BSA) is added (100 μ/well) and the plate is incubated for 90 minutes at room temperature on a plate shaker. • (8) The antibody conjugate is thoroughly removed by decanting and rinsing the wells 5 times with PBS, and the plate is dried by inverting and tapping on a paper towel. • (9) TMB substrate solution is added (100 μl/well) and incubated for 20 minutes at room temperature on a plate shaker until color development is sufficient for photometric detection. • (10) The absorbance of the samples are measured at 410 nm (in “dual wavelength” mode with a filter reading at 490 nm, as a reference wavelength) on a Dynatech ELISA plate reader.
A general note: Dividing cells build labelled thymidine or BrdU into new DNA.

The test system of a further experiment is A431 cells. The experiment is described as follows: A431 growth assay (2% FBS). The settings on record: Homo sapiens, A-431, read-out: A431 growth (2% FBS) IC50.
For a further experiment, the system named is SKOV3 cells. Description: SKOV3 growth assay (2% FBS). The note with it: Homo sapiens, SK-OV-3, read-out: SKOV3 growth (2% FBS) IC50.

The term IC50 denotes the concentration that inhibits the measured activity by half. For `COc1cc(/C=C2/C(=O)Nc3ccccc32)c(-c2ccc3ccccc3c2)cc1OC` [Example 62, 3-(4,5-Dimethoxy-2-naphthalen-2-ylbenzylidene)-1,3-dihydroindol-2-one], the figures for the IC50 (in experiment [1]; in the experiment with A431 cells; in the experiment on SKOV3 cells) were above 50 µM, 6 µM and 6.1 µM, respectively.
For the molecule `CC(C)c1cc(/C=C2/C(=O)Nc3ccc(Br)cc32)cc(C(C)C)c1OCCN1CCOCC1` [Example 57, 5-Bromo-3-[3,5-diisopropyl-4-(2-morpholin-4-ylethoxy)benzylidene]-1,3-dihydroindol-2-one], the results for the concentration for half-maximal inhibition (IC50) (in experiment [1]; in the experiment with A431 cells; in the experiment on SKOV3 cells) were 12.3 µM, 5.8 µM and 4 µM, respectively.
For `COc1cccc(-c2cc(OC)c(OC)cc2/C=C2/C(=O)Nc3ccc(Cl)cc32)c1` [Example 61, 5-Chloro-3-(4,5-3′-Trimethoxybiphenyl-2-ylmethylene)-1,3-dihydroindol-2-one], in that order: above 50 µM, above 25 µM and above 25 µM.
On to `CC(=O)Nc1ccc2c(c1)NC(=O)/C2=C/c1ccc(OCCN2CCOCC2)c(C2CCCCC2)c1` [Example 16, N-{3-[3-Cyclohexyl-4-(2-morpholin-4-ylethoxy)-benzylidene]-2-oxo-2,3-dihydro-1H-indol-6-yl}-acetamide], for which the values for the IC50 (in experiment [1]; with A431 cells; in the experiment on SKOV3 cells) were 6.4 µM, 4.1 µM and 5.9 µM, respectively.
For `COc1ccc(/C=C2/C(=O)Nc3ccc(Cl)cc32)cc1-c1cccnc1` [Example 60], in that order: above 50 µM, 5.9 µM and 4.8 µM.
As for `COc1cc(/C=C2/C(=O)Nc3ccccc32)c(-c2cccs2)cc1OC` [Example 39, 3-(4,5-Dimethoxy-2-thiophen-2-ylbenzylidene)-1,3-dihydroindol-2-one], the IC50 was 16.2 µM in experiment [1], 9.2 µM in the experiment with A431 cells and 9.6 µM in the experiment on SKOV3 cells.
The like results for `COc1ccc(/C=C2/C(=O)Nc3cc(NC(C)=O)ccc32)cc1-c1ccsc1` [Example 18, N-[3-(4-Methoxy-3-thiophene-3-ylbenzylidene)-2-oxo-2,3-dihydro-1H-indol-6-yl]-acetamide] were, in that order, above 50 µM, 0.6 µM and 1 µM.
For `COc1c(C(C)C)cc(/C=C2/C(=O)Nc3ccc(C(C)=O)cc32)cc1C(C)C` [Example 5, 5-Acetyl-3-(3,5-diisopropyl-4-methoxybenzylidene)-1,3dihydroindol-2-one], in that order: 7.2 µM, 4.3 µM and 5.4 µM.
As for `CC(=O)Nc1ccc2c(c1)NC(=O)/C2=C/c1ccc(OCCN2CCOCC2)c(-c2ccsc2)c1` [Example 50, N-{3-[4-(2-Morpholin-4-ylethoxy)-3-thiophen-3-ylbenzylidene]-2-oxo-2,3-dihydro-1H-indol-6-yl}-acetamide], the IC50 in experiment [1] was found to be 37.9 µM.
Regarding `CC(=O)Nc1ccc2c(c1)NC(=O)/C2=C\c1ccc2c(c1)CCC(C)(C)O2` [Example 33, N-[3-(2,2-Dimethylchroman-6-ylmethylene)-2-oxo-2,3-dihydro-1H-indol-6-yl]-acetamide], the IC50 in the experiment with A431 cells was determined as 6.7 µM; in the experiment on SKOV3 cells, 10.3 µM.
Turning to `COc1ccc(/C=C2/C(=O)Nc3ccc(Cl)cc32)cc1C1CCCCC1` [Example 51, 5-Chloro-3-(3-cyclohexyl-4-methoxybenzylidene)-1,3-dihydroindol-2-one], in the experiment with SKOV3 cells, the IC50 turned out to be 14.5 µM.
Still for that read-out and setting: next, `COc1c(C)cc(/C=C2/C(=O)Nc3ncccc32)cc1C` [Example 56, 3-(4-Methoxy-3,5-dimethylbenzylidene)-1,3-dihydropyrrolo[2,3-b]pyridin-2-one]: above 20 µM.
For the molecule `COc1cc(C)c(/C=C2/C(=O)Nc3ncccc32)cc1C(C)C` [Example 45, 3-(5-Isopropyl-4-methoxy-2-methylbenzylidene)-1,3-dihydro-pyrrolo[2,3-b]pyridin-2-one], the figures for the IC50 (in experiment [1]; in the experiment with A431 cells) were above 50 µM and 3.2 µM, respectively.
